Patent US20210244735A1, “COMPOSITIONS AND METHODS FOR TREATING MYELOFIBROSIS” (Impact Biomedicines, Inc., priority 2010, published 2021)
Entries after “also recorded” stand apart in the source; their conditions may differ. Structures can show the parent of a compound that is named as a salt.

Key:
[1] = tested on: subjects with MF; assay: Phase 1 dose-escalation study MF-TG101348-001 (and extension MF-TG101348-002): clinical response (spleen, leukocytosis, thrombocytosis, constitutional symptoms, bone marrow); format: in vivo, human; conditions: for subjects achieving a normal WBC count: following 6 cycles; for subjects achieving a normal platelet count: after 6 cycles; for subjects with minimum 25% decrease in palpable spleen size: intent-to-treat
Protocol: The key eligibility criteria for subjects included: Myelofibrosis (PMF or post-PV/ET MF); High-risk or intermediate-risk with symptomatic splenomegaly/unresponsive to available therapy; ECOG performance status ≤2; ANC≥1×10^9/L; Platelet count≥50×10^9/L; Serum creatinine ≤2 mg/dL; Total bilirubin ≤2 mg/dL; AST/ALT≤3X upper limit of normal.
All patients provided written informed consent.
(§1) Responses were measured every 4 weeks per International Working Group for MPN Research and Treatment (IWG-MRT) criteria (Tefferi A et al., Blood 108:1497-1503, 2006). Assessment of bone marrow histology was performed at baseline and every 24 weeks of therapy. Changes in JAK2V 617F allele burden in the granulocyte fraction of peripheral blood were measured as previously described (Kittur J et al., Cancer 109:2279-2284, 2007); the assessments were at baseline and every 4 weeks during the first 6 cycles, and every 6th cycle of therapy in the extension study.

[2] = tested on: JAK2V617F allele burden; assay: Phase 1 study: JAK2V617F allele burden in granulocyte fraction of peripheral blood; format: in vivo, human
Protocol: as §1

[3] = tested on: human caco-2 cells; assay: caco-2 permeability; format: in vitro ADME; conditions: caco-2 permeability data
[4] = MTD cohort, after 1 cycle (n=12)
[5] = MTD cohort, after 1 cycle, 8 subjects at baseline
[6] = MTD cohort, after 6 cycles (n=16)
[7] = at 3 months, 33 patients who started at >680 mg and completed at least 3 cycles

SMILES: Cc1cnc(Nc2ccc(OCCN3CCCC3)cc2)nc1Nc1cccc(S(=O)(=O)NC(C)(C)C)c1 [TG101348, N-tert-butyl-3-[(5-methyl-2-{[4-(2-pyrrolidin-1-ylethoxy)phenyl]amino}pyrimidin-4-yl)amino]benzenesulfonamide dihydrochloride monohydrate]
- normal WBC count at last follow-up visit ([1]; 21 patients with leukocytosis at baseline who started at ≥680 mg): 70%
- complete response in splenomegaly ([1]; Example 2 conclusions): ~30%
- proportion achieving ≥50% reduction in palpable splenomegaly ([1]; Example 2 conclusions): two-thirds
- subjects achieving CI ([1]; JAK2V617F-negative MF, 4 subjects who completed 6 cycles): 75%
- night sweats: complete resolution ([1]; MTD cohort, after 1 cycle): 64 % of subjects
- cough: complete resolution [1, 4]: 67%
- cough: improvement [1, 4]: 75%
- pruritus: complete resolution [1, 5]: 50%
- pruritus: improvement [1, 5]: 75%
- early satiety: complete resolution ([1]; MTD cohort, after 2 cycles (n=27)): 56%
- night sweats: complete resolution ([1]; MTD cohort, after 6 cycles (n=9)): 89%
- fatigue: complete resolution [1, 6]: 25%
- fatigue: improvement [1, 6]: 63%
- subjects with disease progression ([1]; all subjects): Three
- reduction in palpable spleen size at least 50% [1, 7]: 22 (67%) patients (%)
- spleen became non-palpable [1, 7]: 9 (27%) patients (%)
- normal WBC counts at follow-up visit ([1]; baseline WBC count >11×10^9/L, follow-up doses 360 to 680 mg/day): 73 % of subjects
- subjects achieving a normal WBC count ([1]; baseline leukocytosis (WBC >11×10^9/L), across doses (16 of 28)): 57%
- subjects achieving a normal WBC count ([1]; baseline leukocytosis, MTD cohort (13 of 18)): 72%
- effect on thrombocytosis ([1]; baseline platelet count >450×10^9/L): able to reduce platelet counts
- subjects achieving a normal platelet count ([1]; baseline thrombocytosis (platelet count >450×10^9/L), across doses (10 subjects)): 90%
- subjects achieving a normal platelet count ([1]; baseline thrombocytosis, MTD cohort (7 subjects)): 100%
- ≥50% decrease in palpable spleen size persistent for at least 8 weeks (Clinical Improvement per IWG-MRT) ([1]; by cycle 6, MTD cohort): 45 % of subjects
- subjects with minimum 25% decrease in palpable spleen size ([1]; by cycle 6, MTD cohort): 65%
- ≥50% decrease in palpable spleen size persistent for at least 8 weeks (Clinical Improvement per IWG-MRT) ([1]; by cycle 6, overall): 39 % of subjects
- subjects with minimum 25% decrease in palpable spleen size ([1]; by cycle 6, overall): 61%
- spleen responses (CI) ([1]; by cycle 12, MTD cohort): 50 % of subjects
- spleen responses (CI) ([1]; by cycle 12, overall): 48 % of subjects
- effect on constitutional symptoms (early satiety, fatigue, cough, pruritus, night sweats) ([1]; evaluable subjects, baseline versus last visit, dihydrochloride monohydrate): clinically significant benefit or resolution; also recorded: able to improve; also recorded: remarkable activity
- pruritus ([1]; one subject with JAK2V617F-positive PMF, started at 680 mg/day): complete resolution
- bone marrow fibrosis after 18 cycles ([1]; person, V617F negative PMF, baseline 3+, starting dose 240 mg/day, follow-up 440 mg/day): 0
- bone marrow cellularity after 18 cycles ([1]; person, V617F negative PMF, baseline 60%, starting dose 30 mg/day, follow-up 520 mg/day): 5-10%
- patients with ≥50% reduction in VF allele burden ([2]; 48 evaluable VF-positive patients, last available follow-up): 21 (44%) patients (%)
- subjects with ≥50% decrease in JAK2V617F ([2]; baseline >20%, 18 subjects who completed 12 cycles): 7 (39%) subjects (%)
- JAK2V617F allele burden compared to pre-study baseline ([2]; end of cycle 6 and cycle 12, Wilcoxon matched-pair signed-rank test): significant decrease
- permeability [3]: on the borderline between “low” and “high” permeability
